ChEMBL document CHEMBL5380859, “Bioactivity-Driven Synthesis of the Marine Natural Product Naamidine J and Its Derivatives as Potential Tumor Immunological Agents by Inhibiting Programmed Death-Ligand 1” (J Med Chem, 2023)
Activity calls are given as the source filed them. No cut-off for these calls is given here.

Columns and labels:
[1] = system: RKO; experiment: Cytotoxicity against human RKO cells assessed as reduction in cell viability after 24 hrs by CCK8 assay; type: functional, cell-based
[2] = system: RKO; experiment: Downregulation of PD-L1 expression level in human RKO cells at 10 uM incubated for 24 hrs by Western blot analysis; type: functional, cell-based
[3] = system: RKO; experiment: Downregulation of PD-L1 expression level in human RKO cells at 1 to 10 uM by Western blot analysis; type: functional, cell-based; conditions: dose 1-10 µM, time 3-24 hrs, TDE = time-dependent effect
[4] = system: RKO; experiment: Downregulation of PD-L1 expression level in human RKO cells incubated for 24 hrs by Western blot analysis; type: functional, cell-based; conditions: dose 1-10 µM
[5] = system: RKO; experiment: Effect on PD-L1 mRNA level in human RKO cells at 1 to 10 uM by qRT-PCR analysis; type: functional, cell-based; conditions: dose 1-10 µM
[6] = system: RKO; experiment: Downregulation of PD-L1 expression level in human RKO cells assessed as turnover rate at 5 uM incubated for 12 hrs in presence of CHX by immunoblotting analysis; type: functional, cell-based
[7] = target: Programmed cell death 1 ligand 1 (Homo sapiens) (UniProt Q9NZQ7); experiment: Induction of PD-L1 degradation in human RKO cells at 5 uM in presence of MG132 incubated for 24 hrs by Western blot analysis; type: cell-based
[8] = target: Programmed cell death 1 ligand 1 (Homo sapiens) (UniProt Q9NZQ7); experiment: Induction of PD-L1 degradation in human RKO cells at 5 uM in presence of CQ incubated for 24 hrs by Western blot analysis; type: cell-based
[9] = target: Programmed cell death 1 ligand 1 (Homo sapiens) (UniProt Q9NZQ7); experiment: Induction of PD-L1 degradation in human RKO cells at 5 uM in presence of 3-MA incubated for 24 hrs by Western blot analysis; type: cell-based
[10] = system: RKO; experiment: Antitumor activity in human RKO cells cocultured with […] assessed as induction of T-cell mediated cell killing at 10 uM incubated for 24 hrs by crystal violet staining method; type: functional, cell-based
[11] = system: MC-38; experiment: Antitumor activity against mouse MC38 cells implanted in C57BL/6 mouse assessed as reduction in tumor growth at 50 mg/kg, ip administered once daily for 16 days; type: functional, organism-based; conditions: time 16.0 day
[12] = system: MC-38; experiment: Antitumor activity against mouse MC38 cells implanted in C57BL/6 mouse assessed as reduction in tumor growth at 25 mg/kg, ip administered once daily for 16 days; type: functional, organism-based; conditions: time 16.0 day
[13] = system: MC-38; experiment: Antitumor activity against mouse MC38 cells implanted in C57BL/6 mouse assessed as inhibition of tumor size at 50 mg/kg, ip administered once daily for 16 days; type: functional; conditions: MC-38, 384 h, time 16 day
[14] = system: MC-38; experiment: Antitumor activity against mouse MC38 cells implanted in C57BL/6 mouse assessed as reduction in tumor weight at 50 mg/kg, ip administered once daily for 16 days and measured for every 2 days; type: functional, organism-based; conditions: time 16.0 day
[15] = Toxicity in C57BL/6 mouse implanted with mouse MC38 cells assessed as change in body weight at 50 mg/kg, ip administered once daily for 16 days and measured every 2 days; type: organism-based, MC-38; conditions: in vivo, 384 h, time 16 day
[16] = system: MC-38; experiment: Antitumor activity against mouse MC38 cells implanted in C57BL/6J mouse assessed as increase in number of CD8 positive T cells at 50 mg/kg, ip administered once daily for 16 days by flow cytometry analysis; type: functional, organism-based; conditions: time 16.0 day
[17] = system: MC-38; experiment: Antitumor activity against mouse MC38 cells implanted in C57BL/6J mouse assessed as as increase in ratio of CD8 positive T cells to CD4 positive T cells at 50 mg/kg, ip administered once daily for 16 days by flow cytometry analysis; type: functional, organism-based; conditions: time 16.0 day
[18] = system: MC-38; experiment: Antitumor activity against mouse MC38 cells implanted in C57BL/6 mouse assessed as upregulation of CD3 expression at 50 mg/kg, ip administered once daily and measured after 16 days by immunohistochemistry analysis; type: functional, organism-based; conditions: time 16.0 day
[19] = system: MC-38; experiment: Antitumor activity against mouse MC38 cells implanted in C57BL/6 mouse assessed as downregulation of FOXP3 expression at 50 mg/kg, ip administered once daily and measured after 16 days by immunohistochemistry analysis; type: functional, organism-based; conditions: time 16.0 day
[20] = system: MC-38; experiment: Antitumor activity against mouse MC38 cells implanted in C57BL/6 mouse assessed as downregulation of PD-L1 expression at 50 mg/kg, ip administered once daily and measured after 16 days by immunohistochemistry analysis; type: functional, organism-based; conditions: time 16.0 day
[21] = system: MC-38; experiment: Antitumor activity against mouse MC38 cells implanted in C57BL/6 mouse assessed as upregulation of cleaved caspase 3 at 50 mg/kg, ip administered once daily and measured after 16 days by immunohistochemistry analysis; type: functional, organism-based; conditions: time 16.0 day

Programmed cell death 1 ligand 1 (Homo sapiens), sequence (Q9NZQ7 whole entry): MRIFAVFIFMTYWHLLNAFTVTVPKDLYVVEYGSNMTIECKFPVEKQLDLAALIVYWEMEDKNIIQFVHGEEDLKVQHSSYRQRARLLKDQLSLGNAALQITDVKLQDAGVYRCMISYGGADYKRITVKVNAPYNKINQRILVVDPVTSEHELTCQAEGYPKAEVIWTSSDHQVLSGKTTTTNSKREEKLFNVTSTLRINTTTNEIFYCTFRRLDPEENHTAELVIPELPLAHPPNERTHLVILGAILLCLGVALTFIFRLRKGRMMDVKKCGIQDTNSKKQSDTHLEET

SMILES | IC50 [1] | Activity [2] | also measured
COc1ccc(Cc2nc(NC(=O)c3ccco3)n(C)c2Cc2ccc(OC)c(OC)c2)cc1 | 29.5 µM | Active | 
COc1ccc(Cc2nc(NC(=O)c3ccc(NC(=O)OC(C)(C)C)cc3)n(C)c2Cc2ccc(OC)c(OC)c2)cc1 | 22.4 µM |  | 
COc1ccc(Cc2nc(NC(=O)c3ccc(C(C)=O)cc3)n(C)c2Cc2ccc(OC)c(OC)c2)cc1 | 26.9 µM |  | 
COc1ccc(Cc2nc(NC(=O)c3cccc(N(C)C)c3)n(C)c2Cc2ccc(OC)c(OC)c2)cc1 | > 40 µM |  | 
CCCCC(=O)Nc1cccc(C(=O)Nc2nc(Cc3ccc(OC)cc3)c(Cc3ccc(OC)c(OC)c3)n2C)c1 | 5.2 µM | Active | 
COc1ccc(Cc2nc(NC(=O)c3sc(C)nc3C(F)(F)F)n(C)c2Cc2ccc(OC)c(OC)c2)cc1 | 30.8 µM | Active | 
COc1ccc(Cc2nc(NC(=O)c3ccc(N)cc3)n(C)c2Cc2ccc(OC)c(OC)c2)cc1 | 24.9 µM |  | 
COc1ccc(Cc2nc(NC(=O)c3cccc(NC(=O)OC(C)(C)C)c3)n(C)c2Cc2ccc(OC)c(OC)c2)cc1 | 31.7 µM | Active | Activity [3]: Tde; Activity [4]: Dose-Dependent Effect; Activity [5]: inactive; Activity [6]: inactive; Activity [7]: Active; Activity [8]: Active; Activity [9]: inactive; Activity [10]: Active; Activity [11]: Active; Activity [12]: inactive; inhibition in vivo at 50 mg/kg [13]: 45%; Activity [14]: Active; Activity [15]: Non-Toxic; Activity [16]: Active; Activity [17]: Active; Activity [18]: Active; Activity [19]: Active; Activity [20]: Active; Activity [21]: Active
COc1ccc(Cc2nc(NC(=O)c3cc(Br)ccc3O)n(C)c2Cc2ccc(OC)c(OC)c2)cc1 | 20.4 µM |  | 
COc1ccc(Cc2nc(NC(=O)c3ccc(OC(F)(F)F)cc3)n(C)c2Cc2ccc(OC)c(OC)c2)cc1 | 23.9 µM | Active | 
COc1ccc(Cc2nc(NC(=O)c3cc(OC)cc(OC)c3)n(C)c2Cc2ccc(OC)c(OC)c2)cc1 | > 40 µM |  | 
COc1ccc(Cc2nc(NC(=O)c3ccccc3)n(C)c2Cc2ccc(OC)c(OC)c2)cc1 | > 40 µM |  | 
CCCCC(=O)Nc1nc(Cc2ccc(OC)cc2)c(Cc2ccc(OC)c(OC)c2)n1C | > 40 µM |  | 
CNc1cccc(C(=O)Nc2nc(Cc3ccc(OC)cc3)c(Cc3ccc(OC)c(OC)c3)n2C)c1 | > 40 µM |  | 
COc1ccc(Cc2nc(NC(=O)C3CCCCC3)n(C)c2Cc2ccc(OC)c(OC)c2)cc1 | > 40 µM |  | 
CNC(=O)Nc1nc(Cc2ccc(OC)cc2)c(Cc2ccc(OC)c(OC)c2)n1C | 24.2 µM | Active | 
COc1ccc(Cc2nc(NC(=O)c3ccc(F)cc3)n(C)c2Cc2ccc(OC)c(OC)c2)cc1 | > 40 µM |  | 
COc1ccc(Cc2nc(NC(=O)C34C[C@H]5C[C@H](C3)C[C@@H](C4)C5)n(C)c2Cc2ccc(OC)c(OC)c2)cc1 | 25.7 µM | Active | 
COc1ccc(Cc2nc(NC(=O)C3CC4(C3)CC(F)(F)C4)n(C)c2Cc2ccc(OC)c(OC)c2)cc1 | > 40 µM |  | 
COc1ccc(Cc2nc(NC(=O)c3cccc(NC(=O)CN(C)C)c3)n(C)c2Cc2ccc(OC)c(OC)c2)cc1 | 5.3 µM | Active | 
COC(=O)C12CCC(C(=O)Nc3nc(Cc4ccc(OC)cc4)c(Cc4ccc(OC)c(OC)c4)n3C)(CC1)CC2 | 14.6 µM |  | 
COc1ccc(Cc2nc(NC(=O)c3cccc(NC(C)=O)c3)n(C)c2Cc2ccc(OC)c(OC)c2)cc1 | > 40 µM |  | 
COc1ccc(Cc2nc(NC(=O)c3cccc(N)c3)n(C)c2Cc2ccc(OC)c(OC)c2)cc1 | 20.1 µM |  | 
COc1ccc(Cc2nc(NC(=O)C3CCOCC3)n(C)c2Cc2ccc(OC)c(OC)c2)cc1 | 33.3 µM | Active | 
COc1ccc(Cc2nc(NC(=O)c3ccccc3O)n(C)c2Cc2ccc(OC)c(OC)c2)cc1 | > 40 µM | Active | 
